Results published in patent US20140162955A1, “Antagonizing Heparin With Salicylamide Compounds And Histamine Blocking Agents” (CELLCEUTIX CORPORATION, priority 2012, published 2014).

System: anesthetized rats
Assay: Cardiovascular effects (blood pressure, heart rate) in anesthetized rats pretreated with heparin and histamine antagonists or NO synthase inhibitor
Format: in vivo, rat
Details: for blocking of blood pressure reductions caused by IV infusion of Compound 100: pretreatment at T = -15 minutes, Compound 100 at 8 and 16 mg/kg, anesthetized rat
Protocol: A purpose of this study was to evaluate the role of histamine or nitric oxide (NO) on the hemodynamic effects of Compound 100 administered by a 10 minute IV infusion in rats by pretreatment with an H1 receptor blocker (diphenhydramine; DPH), an H2 receptor blocker (cimetidine; CIM), or an NO synthase inhibitor (L-NAME). Surgically prepared animals (jugular vein catheter for test article administration and carotid artery catheter for blood pressure/heart rate measurement) were purchased from Charles River Laboratories, Raleigh, N.C. Animals were anesthetized on the day of experimentation with isoflurane (1.8-4%). Blood pressure and heart rate data were collected on a Grass Polygraph recorder. Groups of three or four animals were administered two pretreatments followed by the administration of the vehicle or Compound 100. Dose groups are described in Table 1. Treatment 1 was administered at T=−15 minutes as an intravenous administration of saline, cimetidine or L-Name, a subcutaneous dose of diphenhydramine or a combination of diphenhydramine (s.c.) and cimetidine (i.v.). Saline or heparin were administered at T=−3 minutes by intravenous administration (Treatment 2). Treatment 3 was Compound 100 or sterile water (vehicle) which was administered by a 10 minute intravenous infusion. Blood pressure and heart rate were recorded prior to Treatment 1, 5 and 10 minutes after Treatment 1, 2 minutes following Treatment 2, and at 1, 15, 25, 40, and 70 minutes following Treatment 3. Each recording interval was approximately 1 minute long. [table]

Row | SMILES | blocking of blood pressure reductions caused by IV infusion of Compound 100 | blood pressure following administration of L-NAME, prior to dosing of test agent (L-NAME 100 mg/kg i.v., before Compound 100)
1 | CN/C(=N/CCSCc1nc[nH]c1C)NC#N [Cimetidine, cimetidine] | only prevented blood pressure reductions at the 8 mg/kg dose | 
2 | COC(=O)[C@@H](N)CCCNC(=N)N[N+](=O)[O-] [L-NAME] | ineffective at both Compound 100 dosages | increases in blood pressure were evident
3 | CN(C)CCOC(c1ccccc1)c1ccccc1 [diphenhydramine] | effectively blocks blood pressure reductions | 
